# Reference: patent US12485110B2, “Use of ergothioneine for extending lifespan or improving healthspan” (NANJING NUTRABUILDING BIO-TECH CO., LTD., priority 2022, dated 2025)
# “Also recorded” adds a separate entry of the source.
# Assays:
# C. elegans [1] = test: Lifespan assay (Automated Lifespan Machine); type: in vivo
# From the text: N2 (Bristol) wild type strain has been used in this application.
# To prevent chemical modification or metabolism of the test article by the food bacteria, worms were fed on a lawn of UV-killed bacteria (UV-i bacteria). An overnight culture of E. coli strain WP-2 was pelleted, washed, filtered, and irradiated. A suspension of UV-i bacteria was spotted on NGM agar containing Streptomycin to inhibit the growth of contaminating bacteria. The quantity and distribution of food bacteria were calibrated to ensure adequate access to food for the duration of assay while maintaining visibility of the worms.
# The ALM used herein is based on the Caenorhabditis elegans lifespan machine published by Stroustrup et. al (Stroustrup, N. et al. The Caenorhabditis elegans Lifespan Machine. Nat Methods 10, 665-670 (2013)), with proprietary modifications to improve temperature stability and image acquisition. The scanner unit consists of a modified EPSON V850 and images are processed and analyzed using the ALM software (see id.). The machine time-of-death calls are trained and validated using the “storyboarding” feature of the ALM software.
# The lifespan assay was designed and performed according to published and validated methods (Amrit, F. R. G., Ratnappan, R., Keith, S. A. & Ghazi, A. The C. elegans lifespan assay toolkit. Methods 68, 465-475 (2014)), using a modified version of the Automated Lifespan Machine (Stroustrup, N. et al. The Caenorhabditis elegans Lifespan Machine. Nat Methods 10, 665-670 (2013)). Worms were age synchronized by bleaching and eggs were plated directly onto NGM agar seeded with UV-i bacteria (Day 1, hatch). On Day 3, when the worms had reached the late L4 stage, they were transferred to dishes containing 100 μM 5-Fluorodeoxyuridine (FUdR) to suppress progeny. On day 5, the worms were washed off the dishes, and 30-50 worms were plated on each scanner dish. Plates were immobilized inverted on the bed of an Automated Lifespan Machine which scanned two images per hour of the plates continuously for the next 40 days.
# Time of death calls exported from the ALM software was analyzed and plotted using the Lifelines software package developed by Cam Davidson-Pilon et. al (Lifelines Version: v0.25.9). Additional analysis performed using the OASIS2 analysis software (Seong Kyu Han et. al. OASIS 2: online application for survival analysis 2 with features for the analysis of maximal lifespan and healthspan in aging research. Oncotarget. 7:56147-56152. (2016)).
# The lifespan assay was initiated by expanding all replicate groups to more than 1000 worms, then synchronizing by bleaching and allowing larval worms to hatch and arrest. To eliminate the effect of bacterial metabolism and growth on lifespan of C. elegans (wild type, and not over express β-amyloid peptide) worms, synchronized worms were only exposed to dead food bacteria. To suppress progeny, worms were transferred to media containing 5-Fluorodeoxyuridine (FUdR) within 54-60 hours post-plating. Worms were inspected 24 and 48 hours after this transfer to confirm infertility. Finally, the worms were inspected for general health and morphology before transferring to scanner plates. The scanner plates were incubated for an additional 2 days and inspected again before loading onto scanners.
# To obtain high-resolution lifespan data and eliminate confounding factors such as worm handling and operator bias, lifespan data was collected using an Automated Lifespan Machine (ALM) (Stroustrup, N. et al. The Caenorhabditis elegans Lifespan Machine. Nat Methods 10, 665-670 (2013)). Three biological replicates, derived from synchronizing three independently maintained lines of N2 worms, were distributed across instruments. Images of the worms were then collected for the next 35 days with no interruption or manipulations. Some plates were excluded after quality checks, but plate number and worm count for all replicates exceeded the threshold for statistical significance (Table 1, row 1).
# C. elegans [2] = test: Movement and healthspan analysis (worm activity, morphology, circularity); type: in vivo; conditions: 0.1 mM
# From the text: Worm movement was tracked from the images acquired by the ALM during the lifespan assay. Worm size and movement features were extracted and analyzed using custom software.
# To measure healthspan, active worms were identified using the ALM scanner images from the lifespan assay (see Example 2). The worms' spatial location on the plate and their morphology were quantified throughout their lifespan to assess healthspan.
# Worm Activity serves as a proxy for animal health. Changes in spatial distribution of the worms between time points is used to derive aggregate movement for the population over time. Worm Activity is described by two complementary measurements of aggregate movement, Centroid Distance and Spatial Distribution: • Centroid Distance calculates a geometric center for each individual worm, and then measures the minimum collective distance that a group of worms moved between time points. It achieves measurement of the changes in spatial distribution between time-points. • Spatial Distribution uses changes in worm contours between time points to measure the changes in the spatial distribution of the worms' bodies. The normalized distribution of these distances in the population provides a measure of how much the group of worms altered their positions and posture on the plate between two time-points.
# For both of these Activity metrics, a plot with higher numbers indicates good health, and all measures are normalized to fall between 0 and 1.
# Worm morphology is measured from the worm contours detected in the images. In the process of aging, worms become shorter and stouter over time and their shape is an indicator of their overall health and biological age. The Length is calculated from the central spline fitted to the worm contour and Width is measured from each worm's widest point. The worms' posture also changes with age as they lose the ability to maintain an elongated position. Average Circularity measures how close the shape and posture come to being enclosed by a circle.
# Each of these measures are obtained by averaging data for all active worms detected on a plate, then averaging across different replicate plates of the same condition. All measurements are based on worms that are still alive and moving at the time of quantification. All measures start when worms are placed on the scanner at day 3 of adulthood.
# Average Circularity. The Average Circularity Assay indicates worm heath by describing how closely the shape and posture of the worms is enclosed within a circle. Healthy, active worms maintain an elongated, albeit sinusoidal posture. As unhealthy and aged worms lose muscle function, they increasingly adopt a curled, bunched, or folded state in addition to a stout and wrinkled morphology.
smiles,measurement,setting,value
"Oc1ccc(C=Cc2cc(O)cc(O)c2)cc1 [Resveratrol, reference compound]",Age in days at 25% mortality,C. elegans [1]; 0.1 mM,21.46 days
same,Age in days at 50% mortality,C. elegans [1]; 0.1 mM,27.29 days
same,Age in days at 75% mortality,C. elegans [1]; 0.1 mM,31.13 days
same,Age in days at 90% mortality,C. elegans [1]; 0.1 mM,35.89 days
same,Age in days at 100% mortality,C. elegans [1]; 0.1 mM,40.85 days
same,Lifespan / survival relative to vehicle control (in words),C. elegans [1]; 0.1 mM positive control,significant positive increase in lifespan; also recorded: higher survival than the vehicle control at all timepoints
same,Maximum lifespan,"C. elegans [1]; 0.1 mM, 95th percentile of lifespans",37.3 days
same,Median lifespan,"C. elegans [1]; 0.1 mM, N2 wild type, day 0 = day 1 of adulthood",27.3 days
same,Mean lifespan,"C. elegans [1]; 0.1 mM, area under survival curve",26.3 days
same,Average circularity / posture (FIG. 7),C. elegans [2]; late life,maintained a more elongated posture well into late life
same,"Aggregate movement (Centroid Distance and Spatial Distribution, FIGS. 5A-5B)",C. elegans [2]; over the duration of lifespan,more vigorous movement
same,"Worm morphology (size, FIGS. 6A-6C)",C. elegans [2]; over the lifespan,slightly smaller earlier in the assay but remained larger in the late life stages
